Reference: patent publication US6355799B1, “Substituted benzene compounds, process for their preparation, and herbicidal and defoliant compositions containing them” (ISK Americas Incorporated, priority 1997, dated 2002)

Experiments:
Format in all cases: in vivo
[1] = system: lambsquarters (Chenopodium album, CHEAL); experiment: Pre-emerge test, greenhouse herbicide activity screening
Method in brief: (§1)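 Visual ratings on a 0-100 scale (0 no damage, 100 all plants dead) were taken at 14 days after treatment. Rates of 15-1000 g ai/ha in acetone, 187 l/ha, were sprayed onto soil one day after planting (pre-emerge) or onto 2-3 leaf plants with 0.25% v/v surfactant (post-emerge).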

[2] = system: green foxtail (Setaria viridis, SETVI); experiment: as above
Method in brief: as §1

[3] = system: large crabgrass (Digitaria sanguinalis, DIGSA); experiment: as above
Method in brief: as §1

[4] = system: sicklepod (Cassia obtusifolia, CASOB); experiment: as above
Method in brief: as §1

[5] = system: barnyardgrass (Echinochloa crus-galli, ECHCG); experiment: as above
Method in brief: as §1

[6] = system: ivyleaf morningglory (Ipomoea hederacea, IPOHE); experiment: as above
Method in brief: as §1

[7] = system: velvetleaf (Abutilon theophrasti, ABUTH); experiment: as above
Method in brief: as §1

[8] = system: johnsongrass (Sorghum halepense, SORHA); experiment: as above
Method in brief: as §1

[9] = system: lambsquarters (Chenopodium album, CHEAL); experiment: Post-emerge test, greenhouse herbicide activity screening; conditions: post-emerge; for Post-emerge Herbicidal Activity CHEAL: phytotoxicity rating 0-100 at 14 days after application; for phytotoxicity rating CHEAL: 14 days after application, rating scale 0-100
Method in brief: (§2)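 Compounds in acetone were track-sprayed at 15–1000 g ai/ha: pre-emergence onto soil sown the previous day, then top-watered to incorporate and later bottom-watered; post-emergence onto 2–3 leaf plants with 0.25% v/v surfactant, bottom-watered only. Ratings on a 0–100 phytotoxicity scale were taken at day 14.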

[10] = system: green foxtail (Setaria viridis, SETVI); experiment: as above; conditions: post-emerge; for Post-emerge Herbicidal Activity SETVI: phytotoxicity rating 0-100 at 14 days after application; for phytotoxicity rating SETVI: 14 days after application, rating scale 0-100
Method in brief: as §2

[11] = system: large crabgrass (Digitaria sanguinalis, DIGSA); experiment: as above; conditions: post-emerge; for Post-emerge Herbicidal Activity DIGSA: phytotoxicity rating 0-100 at 14 days after application; for phytotoxicity rating DIGSA: 14 days after application, rating scale 0-100
Method in brief: as §2

[12] = system: sicklepod (Cassia obtusifolia, CASOB); experiment: as above; conditions: post-emerge; for Post-emerge Herbicidal Activity CASOB: phytotoxicity rating 0-100 at 14 days after application; for phytotoxicity rating CASOB: 14 days after application, rating scale 0-100
Method in brief: as §2

[13] = system: barnyardgrass (Echinochloa crus-galli, ECHCG); experiment: as above; conditions: post-emerge; for Post-emerge Herbicidal Activity ECHCG: phytotoxicity rating 0-100 at 14 days after application; for phytotoxicity rating ECHCG: 14 days after application, rating scale 0-100
Method in brief: as §2

[14] = system: ivyleaf morningglory (Ipomoea hederacea, IPOHE); experiment: as above; conditions: post-emerge; for Post-emerge Herbicidal Activity IPOHE: phytotoxicity rating 0-100 at 14 days after application; for phytotoxicity rating IPOHE: 14 days after application, rating scale 0-100
Method in brief: as §2

[15] = system: velvetleaf (Abutilon theophrasti, ABUTH); experiment: as above; conditions: post-emerge; for Post-emerge Herbicidal Activity ABUTH: phytotoxicity rating 0-100 at 14 days after application; for phytotoxicity rating ABUTH: 14 days after application, rating scale 0-100
Method in brief: as §2

[16] = system: redroot pigweed (Amaranthus retroflexus, AMARE); experiment: as above; conditions: post-emerge; for Post-emerge Herbicidal Activity AMARE: phytotoxicity rating 0-100 at 14 days after application; for phytotoxicity rating AMARE: 14 days after application
Method in brief: as §2

[17] = system: johnsongrass (Sorghum halepense, SORHA); experiment: as above; conditions: post-emerge; for Post-emerge Herbicidal Activity SORHA: phytotoxicity rating 0-100 at 14 days after application; for phytotoxicity rating SORHA: 14 days after application, rating scale 0-100
Method in brief: as §2

[18] = system: field corn (Zea mays L., var. Dekalb 535, CORN); experiment: Post-emerge test, crop safety; conditions: post-emerge; for Post-emerge Herbicidal Activity CORN: crop damage rating 0-100 at 14 days after application; for phytotoxicity rating CORN (crop damage): 14 days after application, rating scale 0-100
Method in brief: as §1

[19] = system: upland rice (Oryza sp., var. Tebonnet, RICE); experiment: Post-emerge test, crop safety; conditions: post-emerge; for Post-emerge Herbicidal Activity RICE: crop damage rating 0-100 at 14 days after application; for phytotoxicity rating RICE (crop damage): 14 days after application, rating scale 0-100
Method in brief: as §1

[20] = system: redroot pigweed (Amaranthus retroflexus, AMARE); experiment: Pre-emerge test, greenhouse herbicide activity screening
Method in brief: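 Compounds in acetone were track-sprayed at 187 l/ha, 15–1000 g ai/ha, onto sandy loam pots. Pre-emerge seeds were sown one day before spraying, with surface watering afterwards. Post-emerge plants were at the 2–3 leaf stage and sprayed with 0.25% v/v non-ionic surfactant. Injury was rated 0–100 at 14 days.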

[21] = system: field corn (Zea mays L., var. Dekalb 535, CORN); experiment: Pre-emerge test, crop safety
Method in brief: (§3)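 Compounds in acetone were track-sprayed at 15-1000 g ai/ha (187 l/ha) on sandy loam pots: pre-emerge one day after seeding, post-emerge at 2-3 leaf stage with 0.25% v/v non-ionic surfactant. Phytotoxicity was rated 14 days later on a 0 (no damage) to 100 (complete death) scale.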

[22] = system: upland rice (Oryza sp., var. Tebonnet, RICE); experiment: Pre-emerge test, crop safety
Method in brief: as §3

[23] = pre-emerge, rate 63 g ai/ha, phytotoxicity rating 0-100 at 14 days after application
[24] = pre-emerge, rate 250 g ai/ha, phytotoxicity rating 0-100 at 14 days after application
[25] = crop damage, pre-emerge, rate 63 g ai/ha, phytotoxicity rating 0-100 at 14 days after application
[26] = crop damage, pre-emerge, rate 250 g ai/ha, phytotoxicity rating 0-100 at 14 days after application
[27] = 63 g ai/ha, phytotoxicity rating 0-100, 14 days after application
[28] = 250 g ai/ha, phytotoxicity rating 0-100, 14 days after application
[29] = 63 g ai/ha, crop damage rating 0-100, 14 days after application
[30] = 250 g ai/ha, crop damage rating 0-100, 14 days after application

Cc1c(Cl)cc(F)c(-n2c(=O)cc(C(F)(F)F)n(C)c2=O)c1NC(=O)OCc1ccc(Cl)cc1 [4-61]
Pre-emerge Herbicidal Activity CHEAL [1, 23]: 100
Pre-emerge Herbicidal Activity CHEAL [1, 24]: 100
Pre-emerge Herbicidal Activity SETVI [2, 23]: 80
Pre-emerge Herbicidal Activity SETVI [2, 24]: 75
Pre-emerge Herbicidal Activity DIGSA [3, 23]: 50
Pre-emerge Herbicidal Activity DIGSA [3, 24]: 90
Pre-emerge Herbicidal Activity CASOB [4, 23]: 40
Pre-emerge Herbicidal Activity CASOB [4, 24]: 30
Pre-emerge Herbicidal Activity ECHCG [5, 23]: 30
Pre-emerge Herbicidal Activity ECHCG [5, 24]: 50
Pre-emerge Herbicidal Activity IPOHE [6, 23]: 30
Pre-emerge Herbicidal Activity IPOHE [6, 24]: 60
Pre-emerge Herbicidal Activity ABUTH [7, 23]: 60
Pre-emerge Herbicidal Activity ABUTH [7, 24]: 70
Pre-emerge Herbicidal Activity SORHA [8, 23]: 20
Pre-emerge Herbicidal Activity SORHA [8, 24]: 50
Post-emerge Herbicidal Activity CHEAL ([9]; 63 g ai/ha): 100
Post-emerge Herbicidal Activity CHEAL ([9]; 250 g ai/ha): 100
Post-emerge Herbicidal Activity SETVI ([10]; 63 g ai/ha): 70
Post-emerge Herbicidal Activity SETVI ([10]; 250 g ai/ha): 80
Post-emerge Herbicidal Activity DIGSA ([11]; 63 g ai/ha): 50
Post-emerge Herbicidal Activity DIGSA ([11]; 250 g ai/ha): 70
Post-emerge Herbicidal Activity CASOB ([12]; 63 g ai/ha): 100
Post-emerge Herbicidal Activity CASOB ([12]; 250 g ai/ha): 100
Post-emerge Herbicidal Activity ECHCG ([13]; 63 g ai/ha): 40
Post-emerge Herbicidal Activity ECHCG ([13]; 250 g ai/ha): 60
Post-emerge Herbicidal Activity IPOHE ([14]; 63 g ai/ha): 100
Post-emerge Herbicidal Activity IPOHE ([14]; 250 g ai/ha): 100
Post-emerge Herbicidal Activity ABUTH ([15]; 63 g ai/ha): 100
Post-emerge Herbicidal Activity ABUTH ([15]; 250 g ai/ha): 100
Post-emerge Herbicidal Activity AMARE ([16]; 63 g ai/ha): 100
Post-emerge Herbicidal Activity AMARE ([16]; 250 g ai/ha): 100
Post-emerge Herbicidal Activity SORHA ([17]; 63 g ai/ha): 50
Post-emerge Herbicidal Activity SORHA ([17]; 250 g ai/ha): 70
Post-emerge Herbicidal Activity CORN ([18]; 63 g ai/ha): 50
Post-emerge Herbicidal Activity CORN ([18]; 250 g ai/ha): 70
Post-emerge Herbicidal Activity RICE ([19]; 63 g ai/ha): 40
Post-emerge Herbicidal Activity RICE ([19]; 250 g ai/ha): 80
Pre-emerge Herbicidal Activity AMARE [20, 23]: 100
Pre-emerge Herbicidal Activity AMARE [20, 24]: 100
Pre-emerge Herbicidal Activity CORN [21, 25]: 0
Pre-emerge Herbicidal Activity CORN [21, 26]: 0
Pre-emerge Herbicidal Activity RICE [22, 25]: 0
Pre-emerge Herbicidal Activity RICE [22, 26]: 50

COc1c(Cl)cc(F)c(-n2c(=O)cc(C(F)(F)F)n(C)c2=O)c1NC(=O)C1CC1 [2-206]
Pre-emerge Herbicidal Activity CHEAL [1, 27]: 50
Pre-emerge Herbicidal Activity CHEAL [1, 28]: 100
Pre-emerge Herbicidal Activity SETVI [2, 27]: 0
Pre-emerge Herbicidal Activity SETVI [2, 28]: 70
Pre-emerge Herbicidal Activity DIGSA [3, 27]: 0
Pre-emerge Herbicidal Activity DIGSA [3, 28]: 80
Pre-emerge Herbicidal Activity CASOB [4, 27]: 20
Pre-emerge Herbicidal Activity CASOB [4, 28]: 60
Pre-emerge Herbicidal Activity ECHCG [5, 27]: 0
Pre-emerge Herbicidal Activity ECHCG [5, 28]: 90
Pre-emerge Herbicidal Activity IPOHE [6, 27]: 50
Pre-emerge Herbicidal Activity IPOHE [6, 28]: 90
Pre-emerge Herbicidal Activity ABUTH [7, 27]: 70
Pre-emerge Herbicidal Activity ABUTH [7, 28]: 100
Pre-emerge Herbicidal Activity SORHA [8, 27]: 0
Pre-emerge Herbicidal Activity SORHA [8, 28]: 40
phytotoxicity rating CHEAL ([9]; 63 g ai/ha): 50
phytotoxicity rating CHEAL ([9]; 250 g ai/ha): 70
phytotoxicity rating SETVI ([10]; 63 g ai/ha): 0
phytotoxicity rating SETVI ([10]; 250 g ai/ha): 0
phytotoxicity rating DIGSA ([11]; 63 g ai/ha): 30
phytotoxicity rating DIGSA ([11]; 250 g ai/ha): 20
phytotoxicity rating CASOB ([12]; 63 g ai/ha): 50
phytotoxicity rating CASOB ([12]; 250 g ai/ha): 80
phytotoxicity rating ECHCG ([13]; 63 g ai/ha): 0
phytotoxicity rating ECHCG ([13]; 250 g ai/ha): 30
phytotoxicity rating IPOHE ([14]; 63 g ai/ha): 70
phytotoxicity rating IPOHE ([14]; 250 g ai/ha): 90
phytotoxicity rating ABUTH ([15]; 63 g ai/ha): 50
phytotoxicity rating ABUTH ([15]; 250 g ai/ha): 90
phytotoxicity rating AMARE ([16]; 63 g ai/ha, rating scale 0-100 (0 no damage, 100 complete death)): 20
phytotoxicity rating AMARE ([16]; 250 g ai/ha, rating scale 0-100): 50
phytotoxicity rating SORHA ([17]; 63 g ai/ha): 0
phytotoxicity rating SORHA ([17]; 250 g ai/ha): 0
phytotoxicity rating CORN (crop damage) ([18]; 63 g ai/ha): 0
phytotoxicity rating CORN (crop damage) ([18]; 250 g ai/ha): 0
phytotoxicity rating RICE (crop damage) ([19]; 63 g ai/ha): 0
phytotoxicity rating RICE (crop damage) ([19]; 250 g ai/ha): 70
Pre-emerge Herbicidal Activity AMARE [20, 27]: 0
Pre-emerge Herbicidal Activity AMARE [20, 28]: 80
Pre-emerge Herbicidal Activity CORN [21, 29]: 50
Pre-emerge Herbicidal Activity CORN [21, 30]: 100
Pre-emerge Herbicidal Activity RICE [22, 29]: 60
Pre-emerge Herbicidal Activity RICE [22, 30]: 80
